In one experiment the test system is influenza A virus (IAV) A/Aichi/2/68 (H3N2). Nature of the experiment: microbe, parasite or virus in culture. It is filed as cell-based, influenza A virus in MDCK cells.
Details: not given
In the case of `COC(=O)[C@H]1CC[C@H](NC(=O)[C@H](NC(=O)c2c[nH]c3ncc(C4CC4)nc23)C2CCCCC2)CC1`, the “CPE (result in words)” value is given as “Active”.

Still in this experiment, the particulars now being: Influenza A virus, H3N2, MDCK, 48 h, read-out: CPE IC50.
Consider `CC(C)C[C@@H](NC(=O)c1c[nH]c2ncc(C3CC3)nc12)C(=O)NCC(=O)NCc1ccccn1`, for which the IC50 – broadly, the point on the concentration scale where inhibition reaches its midpoint – was over 100 µM. Regarding `O=C(N[C@@H](C(=O)NCC(=O)N1CCOCC1)C1CC1)c1c[nH]c2ncc(C3CC3)nc12`, the IC50 was over 100 µM. Same read-out and setting: the value for `O=C(N[C@@H](C(=O)N1CCC[C@H](C(=O)N2CCCCC2)C1)C1CC1)c1c[nH]c2ncc(C3CC3)nc12` was 33.1 µM; that for `COc1ccc(CCNC(=O)[C@H](NC(=O)c2c[nH]c3ncc(C4CC4)nc23)C2CC2)cc1` was over 100 µM; that for `O=C(N[C@@H](C(=O)NCc1ccc(Cl)c(Cl)c1)C1CC1)c1c[nH]c2ncc(C3CC3)nc12` was 4.7 µM. As to `COc1ccc(CNC(=O)[C@H](NC(=O)c2c[nH]c3ncc(C4CC4)nc23)C2CC2)cc1`, the IC50 was found to be 10.3 µM. Still for that read-out and setting: as for `O=C(N[C@@H](C(=O)NCc1ccc(C(F)(F)F)cc1)C1CC1)c1c[nH]c2ncc(C3CC3)nc12`, the figure is 4.6 µM; as for `O=C(N[C@@H](C(=O)N1CCC[C@H](C(=O)N2CCOCC2)C1)C1CC1)c1c[nH]c2ncc(C3CC3)nc12`, over 100 µM; as for `CC(C)c1cnc2[nH]cc(C(=O)NC(C)C(C)(C)O)c2n1` (centres unmarked), 12.2 µM. For the compound `O=C(N[C@H](C(=O)N1CCCC1)C1CC1)c1c[nH]c2ncc(C3CC3)nc12`, the 50% inhibitory concentration (IC50) was over 25 µM.

For `O=C(N[C@@H](C(=O)NCCC(=O)N1CCS(=O)(=O)CC1)C1CC1)c1c[nH]c2ncc(C3CC3)nc12`, the IC50 was over 100 µM. The same measure, in the same setting: as for `COCCN(CCOC)C(=O)c1c[nH]c2ncc(C(C)C)nc12`, the figure is over 100 µM; as for `CCN(C)C(=O)c1c[nH]c2ncc(C(C)C)nc12`, over 100 µM. As to `CS(=O)(=O)CCNC(=O)c1c[nH]c2ncc(-c3ccccc3Cl)nc12`, the IC50 was over 100 µM. On the same count and under the same terms, the value for `CN1CCN(C(=O)CCNC(=O)[C@H](NC(=O)c2c[nH]c3ncc(C4CC4)nc23)C2CC2)CC1` was over 100 µM; that for `Cc1ccc(CNC(=O)c2c[nH]c3ncc(C(C)C)nc23)nn1` was 139 µM; that for `O=C(N[C@@H](C(=O)N1CCC[C@@H](C(=O)N2CCCC2)C1)C1CC1)c1c[nH]c2ncc(C3CC3)nc12` was over 100 µM. As to `O=C(N[C@@H](C(=O)NCCC(=O)N1CCCC1)C1CC1)c1c[nH]c2ncc(C3CC3)nc12`, the IC50 is over 100 µM. The same measure, in the same setting: the value for `O=C(N[C@@H](C(=O)NCc1ccccc1F)C1CC1)c1c[nH]c2ncc(C3CC3)nc12` was 14.6 µM; that for `CC(C)c1cnc2[nH]cc(C(=O)NC3CCOC3(C)C)c2n1` (centres unmarked) was over 100 µM; that for `COC(=O)C1CC2(CC(NC(=O)[C@@H](CC(C)C)NC(=O)c3c[nH]c4ncc(C5CC5)nc34)C2)C1` (some centres unmarked) was over 100 µM. In the case of `O=C(N[C@@H](C(=O)NCc1cc(Cl)cc(Cl)c1)C1CC1)c1c[nH]c2ncc(C3CC3)nc12`, the IC50 is over 25 µM. Turning to `O=C(N[C@@H](C(=O)N1CCCCC1)C1CC1)c1c[nH]c2ncc(C3CC3)nc12`, the half-maximal inhibitory concentration (IC50) is over 100 µM. Same read-out and setting: as for `O=C(NCC(=O)N1CCCC1)c1c[nH]c2ncc(Br)nc12`, the figure is over 100 µM. The same measure, in the same setting: the value for `CC(C)NC(=O)c1c[nH]c2ncc(-c3ccccc3C(F)(F)F)nc12` was over 100 µM; that for `O=C(N[C@@H](C(=O)N1CC2(COC2)C1)C1CC1)c1c[nH]c2ncc(C3CC3)nc12` was over 100 µM. For `O=C(N[C@@H](C(=O)NCc1cccc(F)c1)C1CC1)c1c[nH]c2ncc(C3CC3)nc12`, the IC50 came to 9.2 µM. For `CC(C)C[C@@H](NC(=O)c1c[nH]c2ncc(C3CC3)nc12)C(=O)NC1CCCc2ccccc21` (some centres unmarked), the IC50 is over 100 µM. On the same count and under the same terms, the value for `CC(C)C[C@@H](NC(=O)c1c[nH]c2ncc(C3CC3)nc12)C(=O)NCCC(=O)Nc1ccccc1` was over 100 µM; that for `O=C(N[C@@H](C(=O)NCc1ccccc1Cl)C1CC1)c1c[nH]c2ncc(C3CC3)nc12` was 8.8 µM. On to `O=C(N[C@@H](C(=O)NCc1cccc(Cl)c1)C1CC1)c1c[nH]c2ncc(C3CC3)nc12`, for which the half-maximal inhibitory concentration (IC50) is 7.3 µM.

With `CC(C)c1cnc2[nH]cc(C(=O)N3CCC(F)(F)CC3)c2n1`, the 50% inhibitory concentration (IC50) was over 100 µM. Same read-out and setting: as for `COc1ccc(NC(=O)[C@H](NC(=O)c2c[nH]c3ncc(C4CC4)nc23)C2CC2)cc1`, the figure is over 100 µM; as for `CC(C)C[C@@H](NC(=O)c1c[nH]c2ncc(C3CC3)nc12)C(=O)N1CC2(CNC2)C1`, over 100 µM. Same read-out and setting: as for `O=C(N[C@@H](C(=O)NCc1ccc(F)cc1)C1CC1)c1c[nH]c2ncc(C3CC3)nc12`, the figure is 16.1 µM; as for `CC(C)c1cnc2[nH]cc(C(=O)NCCCN3CCOCC3)c2n1`, over 100 µM; as for `COc1ccc(C(C#N)NC(=O)[C@H](NC(=O)c2c[nH]c3ncc(C4CC4)nc23)C2CC2)cc1` (some centres unmarked), 4.9 µM. Take `O=C(N[C@@H](C(=O)NCCc1ccccc1)C1CC1)c1c[nH]c2ncc(C3CC3)nc12`: the IC50 was over 100 µM. The same measure, in the same setting: as for `CC(C)C[C@@H](NC(=O)c1c[nH]c2ncc(C3CC3)nc12)C(=O)N1CC2(CN(C(=O)OC(C)(C)C)C2)C1`, the figure is over 100 µM; as for `CC(C)c1cnc2[nH]cc(C(=O)NC3CCCCC3O)c2n1` (centres unmarked), 11.3 µM. For `N#CC(NC(=O)[C@H](NC(=O)c1c[nH]c2ncc(C3CC3)nc12)C1CC1)c1ccc(C(F)(F)F)cc1` (some centres unmarked), the IC50 was over 10 µM. `O=C(N[C@@H](C(=O)N1CCCC1)C1CC1)c1c[nH]c2ncc(C3CC3)nc12`: the half-inhibitory concentration (IC50) is over 25 µM. Same read-out and setting: as for `O=C(N[C@@H](C(=O)N1CC(F)(F)C1)C1CC1)c1c[nH]c2ncc(C3CC3)nc12`, the figure is over 100 µM. For the compound `O=C(N[C@@H](C(=O)NCc1ccc(F)c(F)c1)C1CC1)c1c[nH]c2ncc(C3CC3)nc12`, the IC50 was 14.8 µM. Same read-out and setting: the value for `O=C(N[C@@H](C(=O)N1CCc2ccccc2C1)C1CC1)c1c[nH]c2ncc(C3CC3)nc12` was over 100 µM; that for `O=C(N[C@@H](C(=O)N1CCC[C@@H](C(=O)N2CCCCC2)C1)C1CC1)c1c[nH]c2ncc(C3CC3)nc12` was over 100 µM. Same read-out and setting: as for `O=C(N[C@@H](C(=O)NCC(=O)N1CCS(=O)(=O)CC1)C1CC1)c1c[nH]c2ncc(C3CC3)nc12`, the figure is over 100 µM. On the same count and under the same terms, as for `CC(C)(NC(=O)c1c[nH]c2ncc(C3CC3)nc12)C(=O)N1CCCC1`, the figure is over 100 µM; as for `CC(C)C[C@@H](NC(=O)c1c[nH]c2ncc(C3CC3)nc12)C(=O)NCCC(=O)NCc1ccccc1`, over 100 µM; as for `O=C(N[C@@H](C(=O)Nc1ccccc1)C1CC1)c1c[nH]c2ncc(C3CC3)nc12`, over 100 µM.

In the case of `O=C(N[C@@H](C(=O)NCc1ccccc1)C1CC1)c1c[nH]c2ncc(C3CC3)nc12`, the IC50 is 18.2 µM. Still for that read-out and setting: the value for `CC(C)c1cnc2[nH]cc(C(=O)NC3(C#N)CC3)c2n1` was 34.7 µM; that for `O=C(N[C@@H](C(=O)NCCC(=O)N1CCCCC1)C1CC1)c1c[nH]c2ncc(C3CC3)nc12` was over 100 µM. On to `O=C(N[C@@H](C(=O)NCc1ccncc1)C1CC1)c1c[nH]c2ncc(C3CC3)nc12`, for which the IC50 came out at 40.4 µM. Still for that read-out and setting: as for `O=C(N[C@@H](C(=O)NCC(=O)N1CCCC1)C1CC1)c1c[nH]c2ncc(C3CC3)nc12`, the figure is over 100 µM; as for `CC(C)C[C@@H](NC(=O)c1c[nH]c2ncc(C3CC3)nc12)C(=O)NCCC(=O)NC1CCCC1`, over 100 µM; as for `O=C(N[C@@H](C(=O)N1CCN(Cc2ccccc2)CC1)C1CC1)c1c[nH]c2ncc(C3CC3)nc12`, 41.9 µM. Turning to `O=C(N[C@@H](C(=O)NC1CCCc2ccccc21)C1CC1)c1c[nH]c2ncc(C3CC3)nc12` (some centres unmarked), the IC50 was over 100 µM. As for `O=C(N[C@@H](C(=O)N1CCC2(CCN(Cc3ccccc3)C2=O)C1)C1CC1)c1c[nH]c2ncc(C3CC3)nc12` (some centres unmarked), the IC50 was determined as 27 µM. Still for that read-out and setting: the value for `CC(C)c1cnc2[nH]cc(C(=O)NCC(F)(F)F)c2n1` was over 50 µM; that for `O=C(N[C@@H](C(=O)N1CCOCC1)C1CC1)c1c[nH]c2ncc(C3CC3)nc12` was over 100 µM; that for `CCCNC(=O)c1c[nH]c2ncc(C(C)C)nc12` was 18.1 µM. Take `O=C(N[C@@H](C(=O)N1CCN(C2CCOCC2)CC1)C1CC1)c1c[nH]c2ncc(C3CC3)nc12`: the IC50 is over 100 µM. The same measure, in the same setting: the value for `O=C(N[C@@H](C(=O)N1CCC[C@@H](C(=O)N2CCOCC2)C1)C1CC1)c1c[nH]c2ncc(C3CC3)nc12` was over 100 µM; that for `CC(C)C[C@@H](NC(=O)c1c[nH]c2ncc(C3CC3)nc12)C(=O)N1CCCC1` was over 100 µM.

Still in this experiment, the particulars now being: Influenza A virus, H3N2, read-out: % CPE reduction.
`O=C(O)c1cccc(CNC(=O)[C@H](NC(=O)c2c[nH]c3ncc(C4CC4)nc23)C2CC2)c1`: the inhibition at 50 µM is -0.2%.

`O=C(N[C@@H](C(=O)NCc1cccnc1)C1CC1)c1c[nH]c2ncc(C3CC3)nc12`: the inhibition at 50 µM turned out to be 6.6%. For the compound `CC(C)C(NC(=O)c1c[nH]c2ncc(C3CC3)nc12)C(N)=O` (centres unmarked), the inhibition at 5 µM is -10.7%.

`O=C(N[C@@H](C(=O)NCc1ccncn1)C1CCCCC1)c1c[nH]c2ncc(C3CC3)nc12`: the inhibition at 50 µM is -2.2%. `COC(=O)C1CCN(C(=O)[C@H](NC(=O)c2c[nH]c3ncc(C4CC4)nc23)C2CCCCC2)C1` (some centres unmarked): the inhibition at 5 µM was -8.1%.

Turning to `O=C(N[C@@H](C(=O)NCc1ccncc1)C1CCCCC1)c1c[nH]c2ncc(C3CC3)nc12`, the inhibition at 50 µM is -8.3%. In the case of `O=C(N[C@@H](C(=O)N1CCC(C(=O)O)C1)C1CCCCC1)c1c[nH]c2ncc(C3CC3)nc12` (some centres unmarked), the inhibition at 5 µM turned out to be 11.6%. Turning to `O=C(N[C@@H](C(=O)N1CCC(CO)C1)C1CCCCC1)c1c[nH]c2ncc(C3CC3)nc12` (some centres unmarked), the inhibition at 50 µM was -10.1%. On to `CC(C)NC(=O)c1c[nH]c2ncc(-c3ccc(C4(C(=O)O)CC4)cc3)nc12`, for which the inhibition at 25 µM is -8.7%.

Regarding `NC(=O)C(NC(=O)c1c[nH]c2ncc(C3CC3)nc12)c1ccc(OC(F)(F)F)cc1` (centres unmarked), the inhibition at 5 µM is -12.9%. `CC(C)C[C@@H](NC(=O)c1c[nH]c2ncc(C3CC3)nc12)C(=O)NCC(=O)Nc1ccccc1`: the inhibition at 50 µM amounted to 25%.

Take `CCOC(=O)C1(c2cccc(-c3cnc4[nH]cc(C(=O)NC(C)C)c4n3)c2)CC1`: the inhibition at 5 µM is -0.5%. In the case of `O=C(NCC(=O)N1CCCC1)c1c[nH]c2ncc(C3CC3)nc12`, the inhibition at 50 µM was found to be 36.2%. `O=C(N[C@@H](C(=O)NCc1ccccc1)C1CCCCC1)c1c[nH]c2ncc(C3CC3)nc12`: the inhibition at 5 µM was -2.2%.

For the origin of these results see US20170100396A1 (priority 2015, published 2017).
